Results published in patent US20240261297A1, “ANTI-CDK INHIBITORS FOR CANCER TREATMENT” (St. John's Cancer Institute, priority 2021, published 2024).
Where two headings read alike, the source gives them in different places. One block for each compound: values may come before it.

Legend:
[1] = target: CDK1/cyclin B (Homo sapiens, UniProt P06493); experiment: Radioisotope-based protein kinase assay; format: biochemical; settings: 10 μM ATP, 3-fold dilution from 10 μM
Experimental: (§1) A series of test compounds were selected for initial screening against CDK isoforms. Protein kinase assays were performed with gold standard radioisotope-based assay formats to measuring enzyme activity remaining in presence and absence of inhibitor.

[2] = target: CDK2/cyclin E (Homo sapiens, UniProt P24941); experiment: Radioisotope-based protein kinase assay; format: biochemical; settings: 10 μM ATP, 3-fold dilution from 10 μM
Experimental: as §1

[3] = Snapshot plasma pharmacokinetics in mice; format: in vivo
Experimental: Evaluation of pharmacokinetic (PK) parameters and efficacy of I-3 in a xenograft model was carried out in mice. […] Briefly, mice were treated with 5 mg/kg of 1-3 or merioline-3. Plasma was then collected at different time points and measured for drug concentration. […] PK parameters of I-3 was also compared to a panel of CDK inhibitors (Table 13). […] Likewise, Ribociclib has a better Cmax than I-3, but it is primarily a CDK4/6 inhibitor.

[4] = target: CDK4/cyclin D1 (Homo sapiens, UniProt P11802); experiment: Radioisotope-based protein kinase assay; format: biochemical; settings: 10 μM ATP, 3-fold dilution from 10 μM
Experimental: as §1

[5] = target: CDK2/cyclin A (Homo sapiens, UniProt P24941); experiment: Radioisotope-based protein kinase assay; format: biochemical; settings: 10 μM ATP, 3-fold dilution from 10 μM
Experimental: as §1

[6] = target: CDK6/cyclin D1 (Homo sapiens, UniProt Q00534); experiment: Radioisotope-based protein kinase assay; format: biochemical; settings: 10 μM ATP, 3-fold dilution from 10 μM
Experimental: as §1

[7] = target: CDK1/cyclin A (Homo sapiens, UniProt P06493); experiment: Radioisotope-based protein kinase assay; format: biochemical; settings: 10 μM ATP, 3-fold dilution from 10 μM
Experimental: as §1

[8] = test system: MDA-MB-468; experiment: Cell viability in breast cancer cell lines; format: cell-based; settings: MDA-MB-468, 72 hours, Table 6, read-out: Cell viability by CellTiter Glo IC50
Text: (§2) Tables 5 and 6 show assessment of in vitro efficacy of I-3 in a panel of breast cancer cell lines.

[9] = test system: MCF-10A; experiment: Cell viability in breast cell lines; format: cell-based; settings: MCF-10A, 72 hours, Table 6, read-out: Cell viability by CellTiter Glo IC50
Text: as §2

[10] = target: CKD9/Cyclin H (Homo sapiens, UniProt P50750); experiment: Biochemical profile against CDKs and binding partners (Table 3)
Experimental: as §1

[11] = test system: caspase 3/7 in MDA-MB-468 cells; experiment: Caspase Glo 3/7 activity assay in MDA-MB-468 cells; format: cell-based; settings: 24 hours
Experimental: Further anti-proliferative effect of 1-3 was evaluated in the TNBC cell line MDA-MB-468 based on biomarker (CDK2) inhibition. […] The mechanistic cell cycle block is aligned with biomarker. In addition, Caspase Glo 3/7 activation was tested to confirm the sub-G1 (apoptotic) arrest in cell cycle.

[12] = test system: caspase 3/7 in PLC/PRF/5 cells; experiment: Caspase Glo 3/7 activity assay in PLC/PRF/5 cells; format: cell-based
[13] = test system: PLC/PRF/5 cells; experiment: Cell viability of HCC cells by CellTiter Glo assay; format: cell-based; settings: 72 hours
Experimental: FIG. 5 is a graph showing cell viability of hepatocellular carcinoma (HCC) cell lines treated with I-3 for 72 hours, assessed by CellTiter Glo assay, with the control level of cells considered 100%.
I-3 was also tested for efficacy on hepatocellular carcinoma (HCC) cell lines. Cell viability was measured by CellTiter Glo assay (FIG. 5 and Table 8).

[14] = target: CDK9/cyclin T1 (Homo sapiens, UniProt P50750); experiment: Radioisotope-based protein kinase assay; format: biochemical; settings: 10 μM ATP, 3-fold dilution from 10 μM
Experimental: as §1

[15] = target: CDK5/p35 (Homo sapiens, UniProt Q00535); experiment: Radioisotope-based protein kinase assay; format: biochemical; settings: Table 2
Experimental: as §1
The activity of compound I-3 was compared to that of a panel of CDKs and their respective binding partners (Tables 2 and 3).

[16] = target: CDK7/cyclin H (Homo sapiens, UniProt P50613); experiment: Radioisotope-based protein kinase assay; format: biochemical; settings: 10 μM ATP, 3-fold dilution from 10 μM
Experimental: as §1

[17] = PO 5 mg/kg, cassette dosing, plasma

Chain of CDK9/cyclin T1 (P50750 whole entry): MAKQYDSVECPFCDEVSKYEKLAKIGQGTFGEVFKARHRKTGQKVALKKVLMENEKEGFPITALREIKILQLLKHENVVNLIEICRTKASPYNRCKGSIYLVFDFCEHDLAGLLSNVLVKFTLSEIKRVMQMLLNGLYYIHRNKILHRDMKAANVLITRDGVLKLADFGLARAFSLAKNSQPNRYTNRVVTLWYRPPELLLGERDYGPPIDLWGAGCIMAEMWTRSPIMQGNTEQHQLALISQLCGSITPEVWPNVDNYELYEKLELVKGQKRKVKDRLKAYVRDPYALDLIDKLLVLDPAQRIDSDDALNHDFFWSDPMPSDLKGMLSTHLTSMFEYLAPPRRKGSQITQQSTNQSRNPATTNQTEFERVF
Chain of CDK9/cyclin T1 (O60563 whole entry partner): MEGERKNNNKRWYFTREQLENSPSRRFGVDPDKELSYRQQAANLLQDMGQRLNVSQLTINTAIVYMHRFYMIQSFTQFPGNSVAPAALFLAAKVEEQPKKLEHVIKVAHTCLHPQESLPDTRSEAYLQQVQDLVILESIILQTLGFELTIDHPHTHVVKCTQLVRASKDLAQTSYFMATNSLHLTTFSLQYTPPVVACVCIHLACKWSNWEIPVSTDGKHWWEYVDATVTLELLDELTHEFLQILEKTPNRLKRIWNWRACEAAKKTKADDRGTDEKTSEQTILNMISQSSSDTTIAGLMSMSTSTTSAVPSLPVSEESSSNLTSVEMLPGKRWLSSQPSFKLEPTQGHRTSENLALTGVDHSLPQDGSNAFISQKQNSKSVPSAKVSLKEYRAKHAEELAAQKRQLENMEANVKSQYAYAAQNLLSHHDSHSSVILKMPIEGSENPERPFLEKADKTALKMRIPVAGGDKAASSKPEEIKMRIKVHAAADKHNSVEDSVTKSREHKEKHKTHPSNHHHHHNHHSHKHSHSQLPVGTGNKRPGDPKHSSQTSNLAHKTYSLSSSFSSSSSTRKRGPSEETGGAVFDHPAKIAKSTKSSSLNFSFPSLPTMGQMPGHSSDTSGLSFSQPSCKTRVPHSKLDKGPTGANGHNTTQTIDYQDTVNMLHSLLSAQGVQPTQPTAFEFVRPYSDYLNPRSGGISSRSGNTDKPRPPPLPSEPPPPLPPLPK
Chain of CDK4/cyclin D1 (P11802 whole entry): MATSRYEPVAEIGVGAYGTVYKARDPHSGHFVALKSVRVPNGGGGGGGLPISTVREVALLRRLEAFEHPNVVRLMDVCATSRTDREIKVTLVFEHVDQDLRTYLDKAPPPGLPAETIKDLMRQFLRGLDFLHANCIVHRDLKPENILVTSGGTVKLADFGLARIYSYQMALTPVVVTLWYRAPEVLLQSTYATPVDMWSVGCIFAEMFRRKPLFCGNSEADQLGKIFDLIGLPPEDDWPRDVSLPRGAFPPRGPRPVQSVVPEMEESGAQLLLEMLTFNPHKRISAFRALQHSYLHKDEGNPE
Chain of CDK4/cyclin D1 (P24385 whole entry partner): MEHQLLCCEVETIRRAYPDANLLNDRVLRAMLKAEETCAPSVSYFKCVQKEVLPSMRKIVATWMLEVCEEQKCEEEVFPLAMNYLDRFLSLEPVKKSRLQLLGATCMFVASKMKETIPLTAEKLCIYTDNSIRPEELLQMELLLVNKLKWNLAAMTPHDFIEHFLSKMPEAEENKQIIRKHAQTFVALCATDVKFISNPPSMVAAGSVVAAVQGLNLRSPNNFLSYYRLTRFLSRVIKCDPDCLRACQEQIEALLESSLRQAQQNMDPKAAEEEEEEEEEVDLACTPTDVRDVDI
Chain of CDK1/cyclin B (P06493 whole entry, canonical isoform): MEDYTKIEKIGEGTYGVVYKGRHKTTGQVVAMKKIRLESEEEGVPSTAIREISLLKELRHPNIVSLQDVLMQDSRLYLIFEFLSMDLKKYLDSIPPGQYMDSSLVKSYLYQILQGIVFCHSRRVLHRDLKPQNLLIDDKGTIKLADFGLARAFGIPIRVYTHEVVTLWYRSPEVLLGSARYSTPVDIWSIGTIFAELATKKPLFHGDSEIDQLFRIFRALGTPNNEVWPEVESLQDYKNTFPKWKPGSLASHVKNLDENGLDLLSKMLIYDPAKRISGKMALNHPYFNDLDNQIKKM
Chain of CDK1/cyclin B (P14635 whole entry partner, canonical isoform): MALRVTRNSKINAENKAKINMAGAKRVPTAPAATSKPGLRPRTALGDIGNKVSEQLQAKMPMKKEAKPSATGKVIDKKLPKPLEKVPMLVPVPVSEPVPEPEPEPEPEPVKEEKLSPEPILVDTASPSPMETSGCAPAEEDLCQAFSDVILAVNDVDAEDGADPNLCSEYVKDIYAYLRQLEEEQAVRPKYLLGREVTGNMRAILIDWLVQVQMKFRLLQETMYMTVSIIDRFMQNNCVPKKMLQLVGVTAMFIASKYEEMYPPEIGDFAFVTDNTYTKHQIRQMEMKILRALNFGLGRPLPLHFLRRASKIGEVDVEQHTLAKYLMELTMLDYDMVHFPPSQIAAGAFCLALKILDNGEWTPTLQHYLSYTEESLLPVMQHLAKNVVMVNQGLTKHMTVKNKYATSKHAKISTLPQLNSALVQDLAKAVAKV
Chain of CDK6/cyclin D1 (Q00534 whole entry): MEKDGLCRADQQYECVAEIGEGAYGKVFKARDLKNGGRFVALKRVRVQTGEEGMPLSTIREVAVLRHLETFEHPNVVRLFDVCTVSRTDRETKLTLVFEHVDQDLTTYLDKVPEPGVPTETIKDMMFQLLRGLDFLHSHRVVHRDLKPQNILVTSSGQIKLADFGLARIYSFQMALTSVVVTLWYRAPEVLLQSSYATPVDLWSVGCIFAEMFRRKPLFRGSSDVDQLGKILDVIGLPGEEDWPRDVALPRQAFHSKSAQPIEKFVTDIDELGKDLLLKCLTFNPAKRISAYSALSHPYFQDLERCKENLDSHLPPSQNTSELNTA
Chain of CDK6/cyclin D1 (P24385 whole entry partner): as the sequence (P24385 whole entry partner) above
Chain of CKD9/Cyclin H (P50750 whole entry): as the sequence (P50750 whole entry) above
Chain of CDK7/cyclin H (P50613 whole entry): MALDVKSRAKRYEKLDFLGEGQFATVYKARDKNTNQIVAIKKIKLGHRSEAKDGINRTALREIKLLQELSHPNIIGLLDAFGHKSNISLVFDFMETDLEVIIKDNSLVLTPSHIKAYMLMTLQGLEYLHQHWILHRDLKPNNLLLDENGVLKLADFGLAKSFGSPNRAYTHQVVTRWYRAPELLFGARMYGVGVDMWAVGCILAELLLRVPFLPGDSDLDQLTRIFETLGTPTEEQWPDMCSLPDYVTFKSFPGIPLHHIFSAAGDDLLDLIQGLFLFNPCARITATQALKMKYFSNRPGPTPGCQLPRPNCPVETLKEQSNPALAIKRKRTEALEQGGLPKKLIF
Chain of CDK7/cyclin H (P51946 whole entry partner): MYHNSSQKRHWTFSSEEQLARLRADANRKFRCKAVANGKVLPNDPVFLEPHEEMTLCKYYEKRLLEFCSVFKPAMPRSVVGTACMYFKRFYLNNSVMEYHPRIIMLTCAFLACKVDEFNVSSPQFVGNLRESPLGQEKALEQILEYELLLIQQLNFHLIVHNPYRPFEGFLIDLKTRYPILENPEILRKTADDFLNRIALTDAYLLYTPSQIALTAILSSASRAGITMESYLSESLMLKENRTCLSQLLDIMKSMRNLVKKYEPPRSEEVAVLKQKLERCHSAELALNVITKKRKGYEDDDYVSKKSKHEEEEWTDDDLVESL
Chain of CDK7/cyclin H (P51948 whole entry partner): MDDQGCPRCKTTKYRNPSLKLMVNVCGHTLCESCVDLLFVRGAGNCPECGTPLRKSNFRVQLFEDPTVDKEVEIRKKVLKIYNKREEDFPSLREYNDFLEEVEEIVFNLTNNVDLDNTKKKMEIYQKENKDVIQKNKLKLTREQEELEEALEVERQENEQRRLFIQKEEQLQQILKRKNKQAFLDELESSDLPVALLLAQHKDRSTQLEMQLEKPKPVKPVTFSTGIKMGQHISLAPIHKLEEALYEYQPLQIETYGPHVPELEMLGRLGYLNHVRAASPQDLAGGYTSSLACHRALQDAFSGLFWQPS
Chain of CDK5/p35 (Q00535 whole entry): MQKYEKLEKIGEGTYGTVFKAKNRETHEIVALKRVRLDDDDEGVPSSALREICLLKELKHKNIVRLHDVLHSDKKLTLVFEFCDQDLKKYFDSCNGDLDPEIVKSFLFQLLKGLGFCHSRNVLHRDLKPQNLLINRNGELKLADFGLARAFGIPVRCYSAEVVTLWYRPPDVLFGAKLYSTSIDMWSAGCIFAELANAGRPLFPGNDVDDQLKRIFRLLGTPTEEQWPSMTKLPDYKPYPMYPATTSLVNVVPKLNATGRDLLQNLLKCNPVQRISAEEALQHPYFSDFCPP
Chain of CDK5/p35 (Q15078 whole entry partner): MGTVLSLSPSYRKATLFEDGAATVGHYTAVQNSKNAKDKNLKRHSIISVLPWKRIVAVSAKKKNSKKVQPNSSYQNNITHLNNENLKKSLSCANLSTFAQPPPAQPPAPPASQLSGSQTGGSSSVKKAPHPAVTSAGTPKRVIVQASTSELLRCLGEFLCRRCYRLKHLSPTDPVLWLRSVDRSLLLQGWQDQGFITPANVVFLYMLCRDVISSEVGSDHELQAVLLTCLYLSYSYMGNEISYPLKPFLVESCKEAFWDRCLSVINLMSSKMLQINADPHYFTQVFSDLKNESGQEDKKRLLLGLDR

Compound: CNC(=O)c1nn(C)c2c1C(C)(C)Cc1cnc(Nc3ccc(N4CCN(C)CC4)cc3)nc1-2 [Milciclib]
IC50 [1]: 398 nM | IC50 [2]: 363 nM | Tmax ([3]; mouse, in vivo): 3.5 h | AUC(0-inf) ([3]; mouse, in vivo, AUCinf): 2980 ng·h/mL | Cmax ([3]; mouse, in vivo, Cmax): 537 ng/mL

Compound: CC[C@H](Nc1nc(NCc2cnc(C)cc2C)c2ncn(C(C)C)c2n1)[C@@H](C)O [CYC065, reference compound]
IC50 [4]: 21 nM | IC50 [1]: 578 nM | IC50 [2]: 5 nM | IC50 ([8]; Homo sapiens): 380 nM | IC50 ([9]; Homo sapiens): 400 nM

Compound: C[C@@]1(O)CCC[C@H]1n1c(=O)c(C(F)F)cc2cnc(NC3CCN(S(C)(=O)=O)CC3)nc21 [PF-06873600, reference compound]
IC50 [10]: 43 nM | Caspase 3/7 activation [11]: no caspase 3/7 activation | IC50 [11]: 5660 nM | IC50 [12]: 3560 nM | IC50 [8]: 65 nM | Cmax [3, 17]: 196 ng/mL | T1/2 [3, 17]: 2.1 h | IC50 [9]: 660 nM | IC50 [13]: 3480 nM

Compound: Merioline-3
IC50 [10]: 2 nM | IC50 [4]: 182 nM | IC50 [5]: 3 nM | IC50 [1]: 7 nM | IC50 [6]: 130 nM | IC50 [2]: 2 nM | IC50 [14]: 2 nM | IC50 [7]: 5 nM | Cmax [3, 17]: 178 ng/mL | AUCinf ([3]; mice, IV 5 mg/kg, plasma): 83,600 min*ng/mL | Cmax ([3]; mice, IV 5 mg/kg, plasma): 5560 ng/mL | T1/2 ([3]; mice, IV 5 mg/kg, plasma): 0.124 h | Tmax ([3]; mice, IV 5 mg/kg, plasma): 0.0833 h | AUCinf ([3]; mice, PO 5 mg/kg, plasma): 4340 ng·min/mL | Cmax ([3]; mice, PO 5 mg/kg, plasma): 483 ng/mL | Tmax ([3]; mice, PO 5 mg/kg, plasma): 1 h | IC50 [15]: 3 nM

Compound: CCN1CCN(Cc2ccc(Nc3ncc(F)c(-c4cc(F)c5nc(C)n(C(C)C)c5c4)n3)nc2)CC1 [Abemaciclib]
Tmax ([3]; mouse, in vivo): 5.5 h | AUC(0-inf) ([3]; mouse, in vivo, AUCinf): 613 ng·h/mL | Cmax ([3]; mouse, in vivo, Cmax): 107 ng/mL

Compound: CC(=O)c1c(C)c2cnc(Nc3ccc(N4CCNCC4)cn3)nc2n(C2CCCC2)c1=O [Palbociclib]
AUC(0-inf) ([3]; mouse, plasma, oral, 5 mg/kg, in vivo PK comparison of CDK inhibitors, Table 13, read-out: AUCinf): 641 ng·h/mL | Cmax ([3]; mouse, plasma, oral, 5 mg/kg, in vivo PK comparison of CDK inhibitors, Table 13, read-out: Cmax): 196 ng/mL | Tmax ([3]; mouse, plasma, oral, 5 mg/kg, in vivo PK comparison of CDK inhibitors, Table 13, read-out: Tmax): 2.1 h

Compound: CNC(=O)c1cc(Oc2ccc(NC(=O)Nc3ccc(Cl)c(C(F)(F)F)c3)cc2)ccn1 [Sorafenib]
IC50 ([13]; Homo sapiens): 6300 nM

Compound: CN(C)C(=O)c1cc2cnc(Nc3ccc(N4CCNCC4)cn3)nc2n1C1CCCC1 [Ribociclib]
Tmax ([3]; mouse, in vivo): 5.7 h | AUC(0-inf) ([3]; mouse, in vivo, AUCinf): 2780 ng·h/mL | Cmax ([3]; mouse, in vivo, Cmax): 303 ng/mL

Second part, the compound after the results:

IC50 [4]: 875 nM | IC50 [5]: 9 nM | IC50 [1]: 16 nM | IC50 [6]: 819 nM | IC50 [2]: 8 nM | IC50 [7]: 11 nM
Compound: Nc1nccc(-c2c[nH]c3nccc(Oc4cccc(Cl)c4)c23)n1 [I-2, 4-(4-(3-chlorophenoxy)-1H-pyrrolo[2,3-b]pyridin-3-yl)pyrimidin-2-amine]

IC50 [4]: 462 nM | IC50 [1]: 7 nM | IC50 [2]: 2 nM
Compound: Nc1nccc(-c2c[nH]c3nccc(Oc4cc(F)cc(F)c4)c23)n1 [I-4, 4-(4-(3,5-difluorophenoxy)-1H-pyrrolo[2,3-b]pyridin-3-yl)pyrimidin-2-amine]

IC50 [4]: 259 nM | IC50 [5]: 3 nM | IC50 [1]: 4 nM | IC50 [6]: 138 nM | IC50 [2]: 2 nM | IC50 [7]: 3 nM
Compound: Nc1nccc(-c2c[nH]c3nccc(Oc4ccccc4)c23)n1 [I-1, 4-(4-phenoxy-1H-pyrrolo[2,3-b]pyridin-3-yl)pyrimidin-2-amine]

IC50 [16]: 43 nM | IC50 [2]: 27 nM | IC50 [14]: 16 nM
Compound: Nc1nccc(-c2c[nH]c3nccc(Oc4cccc(C(F)(F)F)c4)c23)n1 [I-5, 4-(4-(3-(trifluoromethyl)phenoxy)-1H-pyrrolo[2,3-b]pyridin-3-yl)pyrimidin-2-amine]

IC50 [5]: 5 nM | IC50 [6]: 196 nM | IC50 [14]: 3 nM | IC50 [7]: 4 nM
Compound: Nc1nccc(-c2c[nH]c3nccc(Oc4ccc(F)cc4)c23)n1 [I-6, 4-(4-(4-fluorophenoxy)-1H-pyrrolo[2,3-b]pyridin-3-yl)pyrimidin-2-amine]
